# Laboratory results: BindingDB's records for doi:10.1016/j.bioorg.2017.01.008 (University of Karachi, 2017)
# Values joined by “and” are separate entries in the source; they are usually repeats but may differ in a detail not shown here. Equal entries are not always repeated.
# Target: T1, Alkaline phosphatase, tissue-nonspecific isozyme (Bos taurus, UniProt P09487)
# T1 sequence (P09487 whole entry): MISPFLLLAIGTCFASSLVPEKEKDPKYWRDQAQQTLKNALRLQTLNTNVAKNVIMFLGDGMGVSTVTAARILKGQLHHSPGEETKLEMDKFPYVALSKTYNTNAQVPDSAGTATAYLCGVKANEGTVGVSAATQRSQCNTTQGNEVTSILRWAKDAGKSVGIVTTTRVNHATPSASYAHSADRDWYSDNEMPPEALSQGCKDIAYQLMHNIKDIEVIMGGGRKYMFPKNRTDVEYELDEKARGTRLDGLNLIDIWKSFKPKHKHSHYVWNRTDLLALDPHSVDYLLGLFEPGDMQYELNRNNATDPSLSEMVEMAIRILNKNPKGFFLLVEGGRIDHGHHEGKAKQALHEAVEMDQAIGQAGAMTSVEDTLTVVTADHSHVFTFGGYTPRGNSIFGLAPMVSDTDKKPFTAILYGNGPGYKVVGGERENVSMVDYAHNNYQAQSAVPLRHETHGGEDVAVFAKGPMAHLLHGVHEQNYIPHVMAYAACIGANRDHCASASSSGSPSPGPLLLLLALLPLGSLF
# Assay: Alkaline Phosphatase Inhibition Assay
# Details: pH 9.8; 37 °C
# Procedure: (§1) Alkaline phosphatase (b-TNAP, c-IAP purchased from Calzyme Laboratories, Inc. USA) inhibition assay of different cyclic sulfonamides was performed using a chemiluminescent substrate i.e. CDP-Star® (disodium 2-chloro-5-(4-methoxyspiro[1,2-dioxetane-3,2'-(5-chlorotricyclo[3.3.1.13.7]decan])-4-yl]-1-phenyl phosphate). With a slight modification in reported spectrophotometric procedure, an optimized conditions of the bioassay were developed [Hessle et al., Proc. Natl. Acad. Sci., 99:9445-9449]. Buffer solution for this bioassay was composed of 8 M DEA (pH 9.8) that contain 2.5 mM MgCl2 and 0.05 mM ZnCl2. First of all, the compounds were tested at the final concentration of 200 μM(with final DMSO 1% (v/v)). In bioassay procedure, the total volume (50 μL solution) contained 10 μL of tested compound, followed by the addition of 20 μL of TNAP (1:800 times diluted (0.8 unit/mL) enzyme in assay buffer) or 20 μL of IAP (1:800 times diluted (1 unit/mL) enzyme in assay buffer). The mixture was allowed to incubate for 3-5 min at 37 °C and luminescence was measured using microplate reader (BioTek FLx800, Instruments,Inc. USA). The reaction was initiated by the addition of 20 μL of CDP-star® (final concentration of 110 μM) and the assay mixture was incubated again at 37 °C. The change in the luminescence was measured after for 15 min of incubation. The activity of each compound was compared with total activity control (without any inhibitor). Levamisole (2 mM per well) and L-phenylalanine (4 mM per well) were used as a standard inhibitors for tissuenonspecific alkaline phosphatase (TNAP) and calf intestinal alkaline phosphatase (IAP), respectively.
row,Structure (SMILES),IC50
1,"CN(C)c1ccc2c3c(cccc13)S(=O)(=O)NC2c1ccc(Cl)cc1 (stereo unspecified) [6-(Dimethylamino)-3-(4'-dichlorophenyl)-2,3-dihydronaphtho[1,8-de][1,2]thiazine 1,1-dioxide (7b)]",420 nM
2,"CN(C)c1ccc2c3c(cccc13)S(=O)(=O)NC2c1ccc([N+](=O)[O-])cc1 (stereo unspecified) [6-(Dimethylamino)-3-(4'-nitrophenyl)-2,3-dihydronaphtho[1,8-de][1,2]thiazine 1,1-dioxide (7h)]",110 nM
3,"CN(C)c1ccc2c3c(cccc13)S(=O)(=O)NC2c1cccc([N+](=O)[O-])c1 (stereo unspecified) [6-(Dimethylamino)-3-(3'-nitrophenyl)-2,3-dihydronaphtho[1,8-de][1,2]thiazine 1,1-dioxide (7f)]",1450 nM
4,"CSc1ccc(C2NS(=O)(=O)c3cccc4c(N(C)C)ccc2c34)cc1 (stereo unspecified) [6-(Dimethylamino)-3-(4'-thiomethylphenyl)-2,3-dihydronaphtho[1,8-de][1,2]thiazine 1,1-dioxide (7e)]",6630 nM
5,"N[C@@H](Cc1ccccc1)C(=O)O [L-[2,3,4,5,6-3H]phenylalanine]",80200 nM
6,"CN(C)c1ccc2c3c(cccc13)S(=O)(=O)NC2c1ccccc1 (stereo unspecified) [6-(Dimethylamino)-3-phenyl-2,3-dihydronaphtho[1,8-de][1,2]thiazine 1,1-dioxide (7a)]",190 nM

# Further lines, results first:
row,IC50,Structure (SMILES)
1,270 nM,"CN(C)c1ccc2c3c(cccc13)S(=O)(=O)NC2c1cc(Cl)cc(Cl)c1O (stereo unspecified) [6-(Dimethylamino)-3-(3',5'-dichloro-2-hydroxyphenyl)-2,3-dihydronaphtho[1,8-de][1,2]thiazine 1,1-dioxide (7g)]"
2,440 nM and 680 nM,"COc1cc(Br)c(C2NS(=O)(=O)c3cccc4c(N(C)C)ccc2c34)cc1O (stereo unspecified) [6-(Dimethylamino)-3-(5'-bromo-2'-hydroxy-3'-methoxyphenyl)-2,3-dihydronaphtho[1,8-de][1,2]thiazine 1,1-dioxide (7m)]"
3,1190 nM and 510 nM,"COc1ccc(C2NS(=O)(=O)c3cccc4c(N(C)C)ccc2c34)c(OC)c1OC (stereo unspecified) [6-(Dimethylamino)-3-(2',3',4'-trimethoxyphenyl)-2,3-dihydronaphtho[1,8-de][1,2]thiazine 1,1-dioxide (7n)]"
4,460 nM,"Cc1ccc(C2NS(=O)(=O)c3cccc4c(N(C)C)ccc2c34)cc1 (stereo unspecified) [6-(Dimethylamino)-3-(4'-methylphenyl)-2,3-dihydronaphtho[1,8-de][1,2]thiazine 1,1-dioxide (7c)]"
5,200 nM,"COc1cc(C2NS(=O)(=O)c3cccc4c(N(C)C)ccc2c34)ccc1O (stereo unspecified) [6-(Dimethylamino)-3-(4'-hydroxy-3'-methoxyphenyl)-2,3-dihydronaphtho[1,8-de][1,2]thiazine 1,1-dioxide (7j)]"
6,270 nM and 1690 nM,"COc1ccc(C2NS(=O)(=O)c3cccc4c(N(C)C)ccc2c34)cc1O (stereo unspecified) [6-(Dimethylamino)-3-(3'-hydroxy-4'-methoxyphenyl)-2,3-dihydronaphtho[1,8-de][1,2]thiazine 1,1-dioxide (7k)]"
7,310 nM,"COc1ccccc1C1NS(=O)(=O)c2cccc3c(N(C)C)ccc1c23 (stereo unspecified) [6-(Dimethylamino)-3-(2'-methoxyphenyl)-2,3-dihydronaphtho[1,8-de][1,2]thiazine 1,1-dioxide (7i)]"
8,500 nM,"CN(C)c1ccc2c3c(cccc13)S(=O)(=O)NC2c1ccc(O)cc1 (stereo unspecified) [6-(Dimethylamino)-3-(4'-hydroxyphenyl)-2,3-dihydronaphtho[1,8-de][1,2]thiazine 1,1-dioxide (7d)]"

# Target: Intestinal-type alkaline phosphatase (Bos taurus, UniProt P19111)
# Sequence (P19111 whole entry): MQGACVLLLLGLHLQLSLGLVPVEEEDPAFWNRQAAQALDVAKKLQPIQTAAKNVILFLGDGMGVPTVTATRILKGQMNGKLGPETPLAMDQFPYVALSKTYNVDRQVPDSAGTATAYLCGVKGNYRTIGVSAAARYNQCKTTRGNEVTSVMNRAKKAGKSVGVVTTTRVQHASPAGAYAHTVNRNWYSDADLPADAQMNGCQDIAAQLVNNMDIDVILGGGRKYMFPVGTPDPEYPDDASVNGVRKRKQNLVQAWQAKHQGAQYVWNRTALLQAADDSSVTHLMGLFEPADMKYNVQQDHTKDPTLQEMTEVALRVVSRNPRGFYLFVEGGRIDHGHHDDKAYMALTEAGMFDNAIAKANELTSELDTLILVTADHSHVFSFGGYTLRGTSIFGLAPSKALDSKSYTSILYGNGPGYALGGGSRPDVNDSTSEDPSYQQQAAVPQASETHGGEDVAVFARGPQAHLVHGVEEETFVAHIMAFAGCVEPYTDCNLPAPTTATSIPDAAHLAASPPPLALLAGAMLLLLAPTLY
# Assay: Alkaline Phosphatase Inhibition Assay
# Details: pH 9.8; 37 °C
# Procedure: as §1
row,IC50 [nM],Structure (SMILES)
1,380,"CN(C)c1ccc2c3c(cccc13)S(=O)(=O)NC2c1cc(Cl)cc(Cl)c1O (stereo unspecified) [6-(Dimethylamino)-3-(3',5'-dichloro-2-hydroxyphenyl)-2,3-dihydronaphtho[1,8-de][1,2]thiazine 1,1-dioxide (7g)]"
2,1120,"CN(C)c1ccc2c3c(cccc13)S(=O)(=O)NC2c1ccccc1 (stereo unspecified) [6-(Dimethylamino)-3-phenyl-2,3-dihydronaphtho[1,8-de][1,2]thiazine 1,1-dioxide (7a)]"
